Columns and labels:
MMP-1 mRNA = MMP-1 mRNA expression in LPS-stimulated human articular chondrocytes (real-time PCR); type: cell-based; conditions: LPS 2 μg/ml, 4 hours
Experimental: (§1) Human articular chondrocytes were cultured in six well culture Petri dishes at a density of 2.5×10^5 cells/well, in a specific chondrocyte growth medium supplemented with 1% antibiotic—antimycotic mixture, at 37° C. in 5% CO2 humidified incubator. The medium was renewed every 2 days. […] Finally, the cells and medium underwent molecular evaluation 4 hours after the treatments.
(§2) Total RNA was isolated from human chondrocytes for reverse-PCR real time evaluation of IL-1beta, COX2, MMP1, MMP-3, MMP9, MMP13, NF-kB (p50), NF-kB (p65), IL-13 and 5-LOX mRNA (Real Time PCR system, mod 7500, Applied Biosystems, Carlsbad, Calif.) using Trizol Reagent Kit (Life Technologies, Monza, Italy). The first strand of cDNA was synthesized from 5.0 μg total RNA using a high capacity cDNA Archive kit (Applied Biosystems, Carlsbad, Calif.). β-actin mRNA was used as an endogenous control to allow the relative quantification. […] The amplified PCR products were quantified by measuring the calculated cycle thresholds (CT) of IL-1beta, COX2, MMP1, MMP-3, MMP9, MMP13, NF-kB (p50), NF-kB (p65), IL-13 and 5-LOX and β-Actin mRNA. The amounts of specific mRNA in samples were calculated using the 2^ΔΔCT method. The mean value of normal chondrocytes target levels became the calibrator and the results are expressed as the n-fold difference relative to normal controls (relative expression levels). […]

COX-2 mRNA = type: cell-based, human
Experimental: as §1, §2

NF-κB p65 mRNA = test: NF-κB (p65) mRNA expression in LPS-stimulated human articular chondrocytes (real-time PCR); type: cell-based; conditions: LPS 2 μg/ml, 4 hours
Experimental: as §1, §2

IL-1β mRNA [1] = test: Median effect / combination index analysis (Chou and Talalay) of reduction of IL-1β mRNA levels in chondrocytes; type: cell-based; conditions: Homo sapiens, Chondrocyte, read-out: IC50 (Dm) for reduction of IL-1β mRNA levels
Experimental: We then plotted the dose-response curve (FIG. 21) as log (fa/fu) with respect to log (D) to generate the Median Effect Plot (FIG. 22).
The CI was calculated as:

IL-1β mRNA [2] = test: IL-1β mRNA expression in LPS-stimulated human articular chondrocytes (real-time PCR); type: cell-based; conditions: LPS 2 μg/ml, 4 hours
Experimental: as §1, §2

IL-13 mRNA = IL-13 mRNA expression in LPS-stimulated human articular chondrocytes (real-time PCR); type: cell-based; conditions: LPS 2 μg/ml, 4 hours; curcumin alone 5 or 10 μg/ml
Experimental: as §1, §2

MMP-3 mRNA = MMP-3 mRNA expression in LPS-stimulated human articular chondrocytes (real-time PCR); type: cell-based; conditions: LPS 2 μg/ml, 4 hours
Experimental: as §1, §2

5-LOX mRNA = 5-LOX mRNA expression in LPS-stimulated human articular chondrocytes (real-time PCR); type: cell-based; conditions: LPS 2 μg/ml, 4 hours; curcumin 10 μg/ml
Experimental: as §1, §2

- IC50 (IL-1β mRNA [1]): 14.3 µM
SMILES: COc1cc(/C=C/C(=O)CC(=O)/C=C/c2ccc(O)c(OC)c2)ccc1O [curcumin]
- MMP-1 mRNA expression (MMP-1 mRNA; curcumin 5 μg/ml alone): significantly reduced
- MMP-1 mRNA expression (MMP-1 mRNA; curcumin 10 μg/ml): additional decrease in a concentration-dependent manner
- COX-2 mRNA expression (COX-2 mRNA): significantly reduced
- NF-κB p65 mRNA expression (NF-κB p65 mRNA; curcumin 5 μg/ml): failed to result in any change
- NF-κB p65 mRNA expression (NF-κB p65 mRNA; curcumin 10 μg/ml alone): more pronounced decrease
- IL-1β mRNA expression (IL-1β mRNA [2]; curcumin 5 μg/ml): significantly blunted
- IL-1β mRNA expression (IL-1β mRNA [2]; curcumin 10 μg/ml alone): further decreased
- IL-13 mRNA expression (IL-13 mRNA): significantly increased in a dose dependent manner
- MMP-3 mRNA expression (MMP-3 mRNA; curcumin 5 μg/ml alone): significantly reduced
- MMP-3 mRNA expression (MMP-3 mRNA; curcumin 10 μg/ml): additional decrease in a concentration-dependent manner
- 5-LOX mRNA expression (5-LOX mRNA): blunted
